# Source: article PMC10247784, “Physiological activation of human and mouse bitter taste receptors by bile acids” (Communications Biology, 2023)
# Target: T1, mouse Tas2r126 (Mus musculus, UniProt P59532)
# T1 construct: expressed in transfected cells; host or cells: HEK293T-Gα16gust44
# T1 sequence (P59532 1-308): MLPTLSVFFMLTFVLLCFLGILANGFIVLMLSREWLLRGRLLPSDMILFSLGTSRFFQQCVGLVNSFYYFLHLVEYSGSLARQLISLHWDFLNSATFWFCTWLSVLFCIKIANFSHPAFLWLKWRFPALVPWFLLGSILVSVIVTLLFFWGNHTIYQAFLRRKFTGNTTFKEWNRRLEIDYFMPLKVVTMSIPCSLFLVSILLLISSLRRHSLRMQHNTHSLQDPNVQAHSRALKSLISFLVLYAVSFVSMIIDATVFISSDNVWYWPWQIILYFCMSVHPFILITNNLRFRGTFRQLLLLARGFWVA
# Test: Calcium imaging assay (FLIPR), HEK293T-Gα16gust44 cells transfected with mouse Tas2r126
# Type: cell-based
# Description: This set of bile acids was chosen because of their commercial availability in high purities, their diversity within the class of bile acids and their previous detection and quantitation in human blood. Stock solutions were prepared in DMSO.
# As basal growth medium for the HEK293T-Gα16gust44 cell line[17],[59] served Dulbecco’s modified eagle medium (DMEM) (Thermo Fisher Scientific, Darmstadt, Germany) supplemented with 10 % fetal bovine serum (Sigma-Aldrich, Steinheim, Germany), 2 mM L-glutamine (Sigma-Aldrich, Steinheim, Germany), 100 units/ml penicillin (Sigma Aldrich, Steinheim, Germany) and 100 µg/ml streptomycin (Sigma Aldrich, Steinheim, Germany). Growth conditions were 37 °C, 5 % CO2 and saturated air-humidity[60].
# HEK293T-Gα16gust44 cells were seeded on poly-D-lysine (10 µg/ml) coated 96-well plates to reach a confluence of 40-60 % the next day. For transient transfection 150 ng of plasmid DNA containing the receptor of interest and 0.3 µl lipofectamine 2000 (Thermo Fisher Scientific, Darmstadt, Germany) per well were used and transfection took place according to the manual of lipofectamine 2000. […] The empty vector DNA (mock) was transfected as negative control[14],[41].
# Cells were loaded using the calcium-sensitive fluorescent dye Fluo-4-AM (Abcam, Cambridge, Great Britain) in the presence of 2.5 mM probenecid (Sigma-Aldrich, Steinheim, Germany) the day after transfection[13],[41]. 1 h after loading, cells were washed with C1 buffer using a BioTek Cell Washer, incubated in the dark for half an hour and washed again. For automated agonist application and measurement of fluorescence changes, a FLIPR^TETRA device (Molecular Devices, San José, United States) was used. Viability of cells was tested by application of 100 nM Somatostatin 14 (Bachem, Bubendorf, Switzerland)[42].
# Measured data were negative control corrected by subtracting the signal of the mock-transfected cells and exported to Microsoft Excel using the FLIPR software ScreenWorks 4.2. In Microsoft Excel software, standardization of maximum fluorescence intensities to the basal fluorescence and normalization to the buffer-only control was done to calculate the relative fluorescence changes (ΔF/F).
# Initial screening experiments performed in duplicate wells were confirmed by at least one replication and representative traces were selected for display. All dose-response relationships were determined by three independent experiments (biological replicates) performed in duplicates (technical replicates). Threshold concentrations, defined as lowest substance concentrations leading to statistically significant elevated fluorescence changes in receptor-transfected cells compared with empty vector-transfected cells, were determined using SigmaPlot with Student’s t-test to evaluate statistical significance (p < 0.01).
structure (smiles),measurement,setting,value
"C[C@H](CCC(=O)O)[C@H]1CC[C@H]2[C@@H]3[C@H](O)C[C@@H]4C[C@H](O)CC[C@]4(C)[C@H]3C[C@H](O)[C@]12C [Cholic Acid, cholic acid]",RLU,Time 0 s,0 RLU
same,RLU,Time 2 s,6.32 RLU
same,RLU,Time 4 s,-17.4742 RLU
same,RLU,Time 6 s,5.446 RLU
same,RLU,Time 8 s,10.1237 RLU
same,RLU,Time 12 s,18.7423 RLU
same,RLU,Time 14 s,-3.953 RLU
same,RLU,Time 16 s,-7.647 RLU
same,RLU,Time 18 s,11.4341 RLU
same,RLU,Time 18.781 s,-6.409 RLU
same,RLU,Time 20.781 s,-22.1196 RLU
same,RLU,Time 22.781 s,57.6732 RLU
same,RLU,Time 24.781 s,119.461 RLU
same,RLU,Time 26.781 s,150.574 RLU
same,RLU,Time 28.781 s,265.727 RLU
same,RLU,Time 30.781 s,370.327 RLU
same,RLU,Time 32.781 s,482.177 RLU
same,RLU,Time 34.781 s,570.785 RLU
same,RLU,Time 36.781 s,665.431 RLU
same,RLU,Time 38.781 s,689.631 RLU
same,RLU,Time 40.781 s,736.63 RLU
same,RLU,Time 42.781 s,773.753 RLU
same,RLU,Time 44.781 s,819.752 RLU
same,RLU,Time 46.781 s,829.41 RLU
same,RLU,Time 48.781 s,884.282 RLU
same,RLU,Time 50.781 s,903.917 RLU
same,RLU,Time 52.781 s,907.88 RLU
same,RLU,Time 54.781 s,897.488 RLU
same,RLU,Time 56.781 s,894.491 RLU
same,RLU,Time 58.781 s,914.837 RLU
same,RLU,Time 60.781 s,925.711 RLU
same,RLU,Time 62.781 s,919.134 RLU
same,RLU,Time 64.781 s,943.476 RLU
same,RLU,Time 66.781 s,923.886 RLU
same,RLU,Time 68.781 s,937.947 RLU
same,RLU,Time 70.781 s,951.397 RLU
same,RLU,Time 72.781 s,951.831 RLU
same,RLU,Time 74.781 s,959.178 RLU
same,RLU,Time 76.781 s,961.002 RLU
same,RLU,Time 78.781 s,948.826 RLU
same,RLU,Time 80.781 s,939.325 RLU
same,RLU,Time 82.781 s,951.223 RLU
same,RLU,Time 84.781 s,936.985 RLU
same,RLU,Time 86.781 s,922.709 RLU
same,RLU,Time 88.781 s,911.664 RLU
same,RLU,Time 90.781 s,942.653 RLU
same,RLU,Time 92.781 s,908.427 RLU
same,RLU,Time 94.781 s,912.682 RLU
same,RLU,Time 96.781 s,907.486 RLU
same,RLU,Time 98.781 s,899.352 RLU
same,RLU,Time 100.781 s,901.766 RLU
same,RLU,Time 102.781 s,898.622 RLU
same,RLU,Time 104.781 s,885.627 RLU
same,RLU,Time 106.781 s,885.616 RLU
same,RLU,Time 108.781 s,859.767 RLU
same,RLU,Time 110.781 s,849.777 RLU
same,RLU,Time 112.781 s,824.416 RLU
same,RLU,Time 114.781 s,805.273 RLU
same,RLU,Time 116.781 s,784.094 RLU
same,RLU,Time 118.781 s,781.757 RLU
same,RLU,Time 120.781 s,784.883 RLU
same,RLU,Time 122.781 s,777.647 RLU
same,RLU,Time 124.781 s,774.835 RLU
same,RLU,Time 126.781 s,752.144 RLU
same,RLU,Time 128.781 s,755.376 RLU
same,RLU,Time 130.781 s,741.203 RLU
same,RLU,Time 132.781 s,735.986 RLU
same,RLU,Time 134.781 s,705.295 RLU
same,RLU,Time 136.781 s,715.373 RLU
same,RLU,Time 137.563 s,694.021 RLU
same,RLU,Time 143.563 s,674.141 RLU
same,RLU,Time 149.563 s,648.129 RLU
same,RLU,Time 155.563 s,630.623 RLU
same,RLU,Time 161.563 s,621.371 RLU
same,RLU,Time 167.563 s,569.451 RLU
same,RLU,Time 173.563 s,563.656 RLU
same,RLU,Time 179.563 s,519.424 RLU
same,RLU,Time 185.563 s,518.545 RLU
same,RLU,Time 191.563 s,496.035 RLU
same,RLU,Time 197.563 s,519.073 RLU
same,RLU,Time 203.563 s,511.704 RLU
same,RLU,Time 209.563 s,507.09 RLU
same,RLU,Time 215.563 s,499.344 RLU
same,RLU,Time 221.563 s,510.025 RLU
same,RLU,Time 227.563 s,524.879 RLU
same,RLU,Time 233.563 s,522.75 RLU
same,RLU,Time 239.563 s,547.672 RLU
same,RLU,Time 245.563 s,498.436 RLU
same,RLU,Time 293.563 s,489.083 RLU
same,RLU,Time 299.563 s,473.554 RLU
same,RLU,Time 305.563 s,449.101 RLU
same,RLU,Time 311.563 s,467.667 RLU
same,RLU,Time 317.563 s,473.372 RLU
same,RLU,Time 323.563 s,461.769 RLU
same,RLU,Time 329.563 s,454.066 RLU
same,RLU,Time 335.563 s,446.164 RLU
same,RLU,Time 341.563 s,461.362 RLU
same,RLU,Time 347.563 s,456.539 RLU
same,RLU,Time 353.563 s,466.548 RLU
same,RLU,Time 359.563 s,455.13 RLU
same,Activation threshold concentration Tas2r126,p < 0.01 vs empty vector,100 µM
